Test results taken from patent US8501813B2, “γ-secretase inhibitor” (Kabushiki Kaisha Yakult Honsha, priority 2007, dated 2013).

Legend:
γ-secretase = γ-secretase (Homo sapiens, UniProt P49768); assay: Substrate specificity: FLAG-Aβ secretion by HEK293 cells transfected with FLAG APP C99, anti-FLAG immunoprecipitation/western blot; assay type: cell-based; settings: 0.2 μmol/L; for activity at 0.2 µM: HEK293, 24 h, FLAG APP C99, negative control = 100%, read-out: (i) Aβ secretion rate of HEK293 cells
Protocol: Of families constituting human Alcadein (hereinafter, referred to as Alc) known as a substrate for γ-secretase to colocalize with APP in brain neurons, an artificial Alcα fragment (hereinafter, referred to as Alcα C150) whose first extracellular cleavage site and γ-secretase cleavage site were determined was used to study the substrate specificity of the γ-secretase inhibitor of the present invention. β-Alcα produced from a first cleavage construct of Alcα cannot be quantified by sELISA used in Aβ measurement. Therefore, proteins with an attached FLAG tag at the N termini of first cleavage constructs of Alcα and of C99 were expressed by cells. FLAG-Aβ-like peptides secreted into a medium were collected by immunoprecipitation using anti-FLAG antibodies and detected by western blotting using the antibodies. A specific method thereof is shown below.
HEK293 cells (ATCC) (1×10^7 cells/10 cm dish) cultured in 6 ml of 10% FCS-containing DMEM (Wako Pure Chemical Industries, Ltd.) were transfected with FLAG APP C99 pcDNA3.1 (the nucleotide sequence of its coding region is shown in SEQ ID NO: 2) (J. Biol. Chem., 2003, 278, 49448-49458 (which was prepared from pcDNA3-APPC99)) or with FLAG Alcα C150 pcDNA3.1 (the nucleotide sequence of its coding region is shown in SEQ ID NO: 3) (J. Biol. Chem., 2004, 279, 24343-24354 (which was the same as pcDNA3AlcαΔE)) using Lipofectamine 2000 (Invitrogen Corp.) according to the protocol included in the reagent. Each inhibitor and a positive control (γ-Secretase Inhibitor IX (DAPT)) (Calbiochem Contact Information) were separately added at a concentration of 0.2 or 2 μmol/L. The same dose of DMSO (Wako Pure Chemical Industries, Ltd.) thereas was added as a negative control. 24 hours later, the culture supernatants were collected, and samples were preliminarily purified using beads (100 μL of 50% (v/v) Protein-G Sepharose (GE Healthcare)). Then, 15 μL of 50% (v/v) anti-FLAG antibody M2 beads (Sigma-Aldrich Corp.) were added thereto, and the samples were incubated at 4° C. for 1 hour. The beads were collected by centrifugation and washed three times with a buffer (10 mM Tris-HCl [pH 8.0], 140 mM NaCl, 0.1% n-octyl glucoside, 0.025% sodium azide), and Aβ and β-Alcα in the medium were collected. The proteins were subjected to SDS-PAGE using a 15% Tris-Tricine gel (Anal Biochem., 1987, 166 (2), 368-379) and then transferred to a membrane. The membrane was boiled for 5 minutes in PBS. Then, anti-FLAG M2 antibodies (5 μg/ml) (Sigma-Aldrich Corp.) were added thereto, and the membrane was incubated, followed by detection using a western blotting detection reagent ECL (GE Healthcare). This signal was quantified using Versa-doc system (Bio-Rad Laboratories, Inc.) to calculate protein secretion rates (the protein secretion rate of the negative control is defined as 100%).

C99 cells = assay: Cytotoxicity on C99 cells, cell viability by Cell Counting Kit-8; assay type: cell-based, human; settings: 24 h
Protocol: The cytotoxicity of four test substances (TLVM-5, TLVM-7, TLVM-8, and TLVM-9) on the C99 cells was measured using a method shown below.
In the present test, a medium used for the C99 cells was 500 mL of a Dulbecco's Modified Eagle's Medium (DMEM, Sigma-Aldrich Corp.) supplemented with 55 ml of fetal bovine serum (Biosource), 5.5 ml of MEM non-essential amino acids (Gibco), and 5.5 ml of penicillin/streptomycin (Gibco).
The C99 cells were suspended at a concentration of 0.75×10^5 cells/ml in the medium. The suspension was added at a concentration of 100 μL (0.75×10^4 cells)/well to a 96-well collagen plate (Akita Sumitomo Bakelite Co., Ltd.) and cultured for 2 days. Then, the medium (corresponding to 50 μL/well) in the wells was removed, and a fresh medium was added thereto at a concentration of 30 μL/well. […] Then, the cell viability was measured using Cell Counting Kit-8 (Dojindo Laboratories).

SMILES | (i)/(ii) ratio, Aβ / β-Alcα secretion rates (γ-secretase) | cleavage of APP-C99, in words (γ-secretase) | activity at 0.2 µM (γ-secretase) | Cell viability of C99 cells (C99 cells; exposure 0.3 μmol/L) | Cell viability of C99 cells (C99 cells; exposure 1 μmol/L) | Cell viability of C99 cells (C99 cells; exposure 3 μmol/L) | Cell viability of C99 cells (C99 cells; exposure 10 μmol/L) | Cell viability of C99 cells (C99 cells; exposure 30 μmol/L) | Cell viability of C99 cells (C99 cells; exposure 100 μmol/L)
CSCCC(NC(=O)C(NC(=O)C(CC(C)C)CC(O)C(NC(=O)OC(C)(C)C)C(C)O)C(C)C)C(=O)NCc1ccccc1 [TLVM-5, [5S-(tert-butoxycarbonylamino)-4R,6R-dihydroxy-2R-(2-methylpropyl)heptanoyl]-L-valyl-L-methionine benzylamide] | 0.29 | specifically inhibited | 41% | 102% | 109% | 112% | 104% | 82% | 46%
CCCCNC(=O)C(CCSC)NC(=O)C(NC(=O)C(CC(C)C)CC(O)C(NC(=O)OC(C)(C)C)C(C)O)C(C)C [TLVM-7, [5S-(tert-butoxycarbonylamino)-4R,6R-dihydroxy-2R-(2-methylpropyl)heptanoyl]-L-valyl-L-methionine n-butylamide] | 0.30 | specifically inhibited | 36% | 92% | 105% | 96% | 102% | 91% | 96%
CSCCC(NC(=O)C(NC(=O)C(CC(C)C)CC(O)C(NC(=O)OC(C)(C)C)C(C)O)C(C)C)C(=O)NC(C)c1ccccc1 [TLVM-8, [5S-(tert-butoxycarbonylamino)-4R,6R-dihydroxy-2R-(2-methylpropyl)heptanoyl]-L-valyl-L-methionine (S)-α-methylbenzylamide] | 0.27 | specifically inhibited | 32% | 101% | 102% | 101% | 98% | 91% | 8%
CSCCC(NC(=O)C(NC(=O)C(CC(C)C)CC(O)C(NC(=O)OC(C)(C)C)C(C)O)C(C)C)C(=O)NCc1ccc(F)cc1 [TLVM-9, [5S-(tert-butoxycarbonylamino)-4R,6R-dihydroxy-2R-(2-methylpropyl)heptanoyl]-L-valyl-L-methionine 4-fluorobenzylamide] | 0.27 | specifically inhibited | 43% | 104% | 106% | 106% | 105% | 93% | 57%
